Article PMC10111413 (ACS Infectious Diseases, 2023)

Experiments:
[1] = tested on: E. coli ATCC 25922 mcr-1; assay type: cell-based; conditions: CLSI microbroth dilution, Mueller Hinton broth, 18 h at 37 °C, visual read-out, three technical replicates; mcr-1 colistin resistance plasmid
Method: (§1) The antibacterial activities of relacidine A (3a) and B (4a), along with diastereomers 3b and 4b–d and relacidamide (5), were assessed using a standard microbroth dilution assay to establish minimum inhibitory concentration (MIC) values against a panel of Gram-negative bacteria (Table 1). The MIC values measured for synthetic relacidine A (3a) and B (4a) agree well with those previously published.[9] […] Relacidine A (3a) and B (4a), as well as relacidamide (5), were further tested against a panel of colistin-resistant A. baumannii clinical isolates, which confirmed their ability to prevent the growth of colistin-resistant isolates (Supplemental Table S2). […] Also of interest was the finding that while relacidine B (4a) induced <1% hemolysis, a substitution of either the L-Ala or L-Ser to D-Ala or D-Ser increased hemolytic activity to 8–12%. […] The greater hydrolytic stability of relacidine B would appear to be attributable to the increased steric bulk of the Ala side chain next to the ester linkage (compared with the methylene of Gly in relacidine A), which may hinder the nucleophilic attack of water at the ester carbonyl.
(§2) Colistin sulfate was purchased from Activate Scientific. Kanamycin monosulfate was purchased from MP Biomedicals. E. coli ATCC 25922, S. aureus USA300 (ATCC BAA1717), and K. pneumoniae ATCC 13883 belong to the American Type Culture Collection (ATCC). P. aeruginosa PAO1 was kindly provided by L.H.C. Quarles Van Ufford of Utrecht University, Utrecht, The Netherlands. E. coli ATCC 25922 MCR-1 was transfected in-house using the pGDP2-MCR1 plasmid kindly provided by Yong-Xin Li of The University of Hong Kong, Hong Kong, China. Sheep blood agar plates (ref. PB5039A) were purchased from Thermo Scientific. Tryptic soy broth (ref. 02-200-500) was purchased from Scharlab. Mueller-Hinton broth (ref. X927.1) was purchased from Carl Roth. Polypropylene 96-wells plates (ref. 3879) were purchased from Corning.
(§3) MICs were determined according to Clinical and Standards Laboratory Institute (CLSI) guidelines. Blood agar plates were inoculated with glycerol stocks of E. coli ATCC 25922, K. pneumoniae ATCC 13883, P. aeruginosa PAO1, and S. aureus USA300. The inoculated agar plates were then incubated for 16 h at 37 °C. Individually grown colonies were subsequently used to inoculate 5 mL aliquots of tryptic soy broth (TSB) that were then incubated at 37 °C with shaking at 220 rpm. E. coli 25922 MCR-1 glycerol stock was used to inoculate 5 mL of TSB supplemented with kanamycin that was then incubated for 16 h at 37 °C with shaking at 220 rpm. The next day, the culture was diluted 100-fold in TSB supplemented with kanamycin and incubated at 37 °C with shaking at 220 rpm. In parallel, the lipopeptide antibiotic DMSO stocks to be assessed were serially diluted with Mueller Hinton broth (MHB) in polypropylene 96-well plates (50 μL in each well). Colistin sulfate stocks were dissolved in water before being diluted with MHB. Aliquots of the inoculated TSB were incubated until an OD600 of around 0.5 was reached. The bacterial suspensions were then diluted with MHB (2 × 10^5 cfu mL^–1) and added to the microplates containing the test compounds (50 μL to each well). The well plates were sealed with an adhesive membrane, and after 18 h of incubation at 37 °C with shaking at 600 rpm, the wells were visually inspected for bacterial growth. MIC values reported are based on three technical replicates and defined as the lowest concentration of the compound that prevented visible growth of bacteria.

[2] = tested on: E. coli ATCC 25922; assay type: cell-based; conditions: CLSI microbroth dilution, Mueller Hinton broth, 18 h at 37 °C, visual read-out, three technical replicates
Method: as §1, §2, §3

[3] = tested on: K. pneumoniae ATCC 13883; assay type: cell-based; conditions: CLSI microbroth dilution, Mueller Hinton broth, 18 h at 37 °C, visual read-out, three technical replicates
Method: as §1, §2, §3

[4] = tested on: P. aeruginosa PAO1; assay type: cell-based; conditions: CLSI microbroth dilution, Mueller Hinton broth, 18 h at 37 °C, visual read-out, three technical replicates
Method: as §1, §2, §3

[5] = tested on: S. aureus USA300; assay type: cell-based; conditions: CLSI microbroth dilution, Mueller Hinton broth, 18 h at 37 °C, visual read-out, three technical replicates
Method: as §1, §2, §3

[6] = tested on: colistin-resistant A. baumannii isolate BV94; test: G. mellonella larvae infection model; assay type: in vivo; conditions: injected 1 h postinfection, 10^5 cfu A. baumannii BV94 per larva, ten larvae per group, 37 °C
Excerpt: Given the promising in vitro activity of relacidamide (5), along with its high serum stability, low hemolytic activity, and ease of synthesis, we further evaluated its efficacy in an established in vivo infection model using G. mellonella larvae. The G. mellonella infection model has gained popularity in recent years and provides a convenient method to assess the in vivo effectiveness and toxicity of novel antibiotics.[15],[16] […] The larvae were first injected with either vehicle (PBS) or A. baumannii BV94 suspension in the right second proleg. The moth larvae were then injected in the left second proleg with either PBS (untreated), colistin at 100 mg/kg or 200 mg/kg, or relacidamide (5) at 100 mg/kg or 200 mg/kg. The G. mellonella larvae were then incubated for 72 h, and their survival was assessed twice per day. […]
Ten G. mellonella larvae (Serum Therapeutics Inc., average weight of 0.265 g) per group were infected using a 10 μL injection in the right second proleg with mid-log phase (OD600 = 0.5)-growing bacteria resuspended and diluted in phosphate-buffered saline (PBS) to achieve the target inoculum of 10^5 colony forming unit (cfu) per larva. […] The viability of the larvae was assessed twice a day up to a total of 72 h postinfection by checking for movement. […]

## colistin [reference compound]
[1]
  MIC E. coli ATCC 25922 mcr-1: 4 µg/mL
[2]
  MIC E. coli ATCC 25922: 1 µg/mL
[3]
  MIC K. pneumoniae ATCC 13883: 0.25 to 0.5 µg/mL
[4]
  MIC P. aeruginosa PAO1: 1 µg/mL
[5]
  MIC S. aureus USA300: >32 µg/mL
[6]; 100 mg/kg
  survival of G. mellonella larvae after 72 h: none
[6]; 200 mg/kg
  survival of G. mellonella larvae after 72 h: none
